{"source": "patent US20200179528A9", "about": "“IMMUNE CELL-TARGETED PARTICLES” (Dana-Farber Cancer Institute, Inc., priority 2015, published 2020)", "key": {"[1]": {"assay": "SD-208 solubility, loading and release from PEG-PLGA nanoparticles", "format": "physicochemical", "experimental": "PLGA-based nanoparticles were prepared using single-emulsion evaporation. PLGA (AP041, acid end-capped, 50:50, 10-15 kDa, Akina) was blended with Mal-PEG-PLGA (AI53, diblock copolymer, 50:50, 5-10 kDa, Akina) at 25% w/w. The polymers were dissolved in 1 mL dichloromethane (Sigma) and added to 6 mL of ice-cold 0.25% PVA (30,000-70,000 g/mol, Sigma) in 50 mM phosphate buffer, pH 5.8. The two phases were emulsified using a sonic probe (Qsonica Q700 with microtip, amplitude 10, 3 s power with 2 s break). […] The emulsion was stirred at room temperature for 3 h to evaporate the dichloromethane and afterwards purified by two wash-spin cycles in PBS at 20,000 g for 10 min. Nanoparticles s were assessed for size distribution using a Zetasizer Nano series ZS90, and drug encapsulation was determined by absorbance at 370 nm.\nEncapsulation efficiency and drug release kinetics were analyzed by its absorbance maximum at 370 nm (FIG. 43A)."}, "CD8+ T cells": {"tested_on": "CD8+ T cells", "assay": "CD8+ T cell activation with anti-CD3/CD28 beads in presence of TGFβ1 (proliferation, granzyme B, IFNγ)", "format": "cell-based, mouse", "experimental": "FIG. 34. […] Intracellular granzyme B expression was assessed by flow cytometry, n=3±SD. […] Fold change of interferon-γ (IFNγ) was measured by ELISA, n=4±SEM.\nIn vitro binding of nanoparticles was assessed after incubation of 250,000 enriched T cells with fluorescently (DiD, Life Technologies) labelled nanoparticles at different concentrations for 30 min at 37° C. After the incubation, T cells were washed 3 to 5 times in PBS and directly assessed by flow cytometry for DiD fluorescence. T cells isolated from OT-I Rag^−/− mice were activated by Dynabeads Mouse T-Activator CD3/CD28 (Thermo Scientific) at a ratio of 2:1 T cell to bead or by ova-expressing B16 melanoma cells at a ratio of 10:1 T cell to B16 cell. Carboxyfluorescein succinimidyl ester (CFSE, BioLegend) or cell trace violet (CTV, Thermo Scientific) was used to assess T cell proliferation; the labeling was carried out according to the manufacturer's recommendations. Mouse TGFβ1 was purchased from Cell Signaling Technologies, and T cell supernatants were analyzed by mouse IFN-γ ELISA MAX™ (BioLegend)."}, "[2]": {"assay": "Loading of other small molecules into the nanoparticles and their release", "format": "physicochemical", "details": "10%, 20% or 40% small molecule", "experimental": "The formulation procedure used is the same as that used in FIG. 1. Release was measured by absorbance maximum at 280 nm, 300 nm, and 340 nm, respectively. 22.5 mg of PLGA and 7.5 mg of PLGA-PEG were used along with 3 mg (10%), 6 mg (20%), or 12 mg (40%) of small molecule. Note that the release profile can be delayed by loading less drug. Note that the encapsulation efficiency can increase (epacadostat) or decrease (resiquimod, ruxolitinib) by increasing initial loading amount."}, "[3]": {"details": "SD-208 released from nanoparticles versus free inhibitor in DMSO"}}}
{"smiles": "Fc1ccc(Cl)cc1-c1nc(Nc2ccncc2)c2nccnc2n1", "note": "[SD-208]", "values": [{"measurement": "amount entrapped in PEG-PLGA nanoparticles", "setting": "[1]", "value": 20, "unit": "μg/mg polymer"}, {"measurement": "water solubility", "setting": "[1]", "value": "poorly water soluble"}, {"measurement": "release from the nanoparticles", "setting": "[1]; PBS containing 10% serum", "value": "released slowly from the nanoparticles over the course of weeks"}, {"measurement": "TGFβ-mediated inhibition of T cell proliferation", "setting": "CD8+ T cells; SD-208 released from nanoparticles versus free SD-208, TGFβ1 2 ng/mL, 72 hours", "value": "reversed in a comparable manner"}, {"measurement": "granzyme B", "setting": "CD8+ T cells; [3]", "value": "upregulated to a similar extent as free inhibitor"}, {"measurement": "interferon γ (IFNγ)", "setting": "CD8+ T cells; [3]", "value": "upregulated to a similar extent as free inhibitor"}]}
{"smiles": "NS(=O)(=O)NCCNc1nonc1/C(=N/O)Nc1ccc(F)c(Br)c1", "note": "[epacadostat]", "values": [{"measurement": "change of encapsulation efficiency by increasing initial loading amount", "setting": "[2]", "value": "increase"}]}
{"smiles": "N#CC[C@H](C1CCCC1)n1cc(-c2ncnc3[nH]ccc23)cn1", "note": "[ruxolitinib]", "values": [{"measurement": "change of encapsulation efficiency by increasing initial loading amount", "setting": "[2]", "value": "decrease"}]}
